{
  "source": "patent EP0471296B1",
  "about": "“1-(Pyridinylalkyl)-1H-indoles, indolines and related analogs” (HOECHST-ROUSSEL PHARMACEUTICALS INCORPORATED, priority 1990, dated 1992)",
  "key": {"[1]": {"target": "T1, Brain Acetylcholinesterase (Rattus norvegicus, UniProt P37136)", "T1 construct": "corpora striata dissected free, weighed and homogenized in 19 volumes; from tissue; host or cells: rat corpora striata homogenate (male Wistar rats)", "T1 sequence (P37136 32-614)": "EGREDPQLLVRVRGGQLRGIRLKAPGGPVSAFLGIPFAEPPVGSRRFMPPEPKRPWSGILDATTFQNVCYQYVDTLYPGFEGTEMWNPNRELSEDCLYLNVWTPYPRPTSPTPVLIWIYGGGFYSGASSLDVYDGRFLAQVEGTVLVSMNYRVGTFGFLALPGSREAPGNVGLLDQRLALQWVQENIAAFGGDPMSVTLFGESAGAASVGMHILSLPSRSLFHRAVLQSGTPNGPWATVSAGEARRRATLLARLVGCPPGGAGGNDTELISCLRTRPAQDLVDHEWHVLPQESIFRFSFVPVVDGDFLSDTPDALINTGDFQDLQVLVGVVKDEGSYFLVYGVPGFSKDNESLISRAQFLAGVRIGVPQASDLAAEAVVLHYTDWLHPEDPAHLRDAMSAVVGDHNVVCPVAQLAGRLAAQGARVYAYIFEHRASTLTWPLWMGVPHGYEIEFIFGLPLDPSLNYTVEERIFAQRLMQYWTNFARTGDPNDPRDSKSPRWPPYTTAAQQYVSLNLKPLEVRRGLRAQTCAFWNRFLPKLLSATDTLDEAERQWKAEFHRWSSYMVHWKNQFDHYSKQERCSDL", "assay": "In Vitro Inhibition of Acetylcholinesterase Activity in Rat Striatum (modified Ellman method)", "type": "biochemical", "conditions": "rat striatum homogenate, read-out: % Inhibition @ Dose", "excerpt": "Cholinesterases are found throughout the body, both in the brain and in serum. However, only brain acetylcholinesterase (AChE) distribution is correlated with central cholinergic innervation. […] We have determined in vitro inhibition of acetylcholinesterase activity in rat striatum according to the method described below.\nIn Vitro Inhibition of Acetylcholinesterase Activity in Rat Striatum\nAcetylcholinesterase (AChE), which is sometimes called true or specific cholinesterase, is found in nerve cells, skeletal muscle, smooth muscle, various glands and red blood cells. AChE may be distinguished from other cholinesterases by substrate and inhibitor specificities and by regional distribution.\nIt is generally accepted that the physiological role of AChE is the rapid hydrolysis and inactivation of acetylcholine. […]\n• A. Reagents- • 1. […] If active, IC₅₀ values are determined from the inhibitory activity of subsequent concentrations. • B. Tissue Preparation - Male Wistar rats are decapitated, brains rapidly removed, corpora striata dissected free, weighed and homogenized in 19 volumes (approximately 7 mg protein/ml) of 0.05 M phosphate buffer, pH 7.2, using a Potter-Elvehjem homogenizer. […] Assay Enzyme activity is measured with the Beckman DU-50 spectrophotometer. […] This program also calculates the rate of absorbance change for each cuvette. […]"}, "mice": {"system": "mice", "assay": "Dark Avoidance Assay (reversal of scopolamine-induced memory deficit)", "type": "in vivo", "conditions": "s.c.", "procedure": "In this assay mice are tested for their ability to remember an unpleasant stimulus for a period of 24 hours. A mouse is placed in a chamber that contains a dark compartment; a strong incandescent light drives it to the dark compartment, where an electric shock is administered through metal plates on the floor. The animal is removed from the testing apparatus and tested again, 24 hours later, for the ability to remember the electric shock.\nIf scopolamine, an anticholinergic that is known to cause memory impairment, is administered before an animal's initial exposure to the test chamber, the animal re-enters the dark compartment shortly after being placed in the test chamber 24 hours later. This effect of scopolamine is blocked by an active test compound, resulting in a greater interval before re-entry into the dark compartment.\nThe results for an active compound are expressed as the percent of a group of animals in which the effect of scopolamine is blocked, as manifested by an increased interval between being placed in the test chamber and re-entering the dark compartment."}},
  "data": [
    {"smiles": "Oc1ccc2c(ccn2Cc2ccncc2)c1", "note": "[1-(4-pyridinylmethyl)-1H-indol-5-ol, 1-(4-Pyridinylmethyl)-1H-indol-5-ol]", "values": [
      {"measurement": "inhibition at 100 µM", "setting": "[1]; 100 µM", "result": 24, "unit": "%"}
    ]},
    {"smiles": "CC[C@@H]1C(=O)OC[C@@H]1Cc1cncn1C", "note": "[Pilocarpine]", "values": [
      {"measurement": "% of Animals with Scopolamine-Induced Memory Deficit Reversal", "setting": "mice; dose 5.0 mg/kg of body weight", "result": 13, "unit": "%"}
    ]},
    {"smiles": "Nc1c2c(nc3ccccc13)CCCC2", "note": "[Tacrine]", "values": [
      {"measurement": "% of Animals with Scopolamine-Induced Memory Deficit Reversal", "setting": "mice; dose 0.63 mg/kg of body weight", "result": 13, "unit": "%"}
    ]},
    {"smiles": "CCCC(c1ccncc1)n1ccc2ccccc21", "note": "(stereo not shown) [1-[1-(4-pyridinyl)-butyl]-1H-indole, 1-[1-(4-Pyridinyl)butyl]-1H-indole]", "values": [
      {"measurement": "% of Animals with Scopolamine-Induced Memory Deficit Reversal", "setting": "mice; dose 0.3 mg/kg of body weight", "result": 20, "unit": "%"}
    ]},
    {"smiles": "c1ccc2c(c1)ccn2Cc1ccncc1", "note": "[1-(4-pyridinylmethyl)-1H-indole, 1-(4-Pyridinylmethyl)-1H-indole]", "values": [
      {"measurement": "% of Animals with Scopolamine-Induced Memory Deficit Reversal", "setting": "mice; dose 0.3 mg/kg of body weight", "result": 33, "unit": "%"},
      {"measurement": "% of Animals with Scopolamine-Induced Memory Deficit Reversal", "setting": "mice; dose 1.0 mg/kg of body weight", "result": 20, "unit": "%"}
    ]},
    {"smiles": "CN1CCC2(C)c3cc(O)ccc3N(C)C12", "note": "(stereo not shown) [Eseroline]", "values": [
      {"measurement": "inhibition at 6.4 µM", "setting": "[1]; 6.4 µM", "result": 50, "unit": "%"}
    ]}
  ]
}
